Test system: A. baumannii
Assay: MIC screening against A. baumannii
Assay type: cell-based
Conditions: tested separately, unconjugated

Structure (SMILES): CN[C@H](CC(C)C)C(=O)N[C@H]1C(=O)N[C@@H](CC(N)=O)C(=O)N[C@H]2C(=O)N[C@H]3C(=O)N[C@H](C(=O)N[C@H](C(=O)O)c4cc(O)cc(O)c4-c4cc3ccc4O)[C@H](O)c3ccc(c(Cl)c3)Oc3cc2cc(c3O[C@@H]2O[C@H](CO)[C@@H](O)[C@H](O)[C@H]2O[C@H]2C[C@](C)(N)[C@H](O)[C@H](C)O2)Oc2ccc(cc2Cl)[C@H]1O [vancomycin]
- efficacy against A. baumannii (in words): ineffective

— article PMC6454892 (Nature chemistry, 2018)
